Test results from patent US5336485A, “Method for protecting animals against tacrine induced cytotoxic injury using sterol compounds” (priority 1993, dated 1994).
Structures can show the parent of a compound that is named as a salt.

Legend:
liver [1] = assay: CCl4 induced hepatotoxicity in rats (serum AST/ALT); assay type: in vivo, rat
Procedure, shortened: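 Male Sprague-Dawley rats received test compounds i.p. at 100 mg/kg 20–24 h before oral CCl4 (2.9 g/kg or 1 g/kg). Serum AST and ALT were measured 48 h after CCl4 challenge.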

[2] = system: L1210 murine leukemia cells; assay: Inhibition of L1210 leukemia cell growth in vitro; assay type: cell-based, mouse
Experimental: Similar in vitro experiments were conducted with cholesteryl succinate tris salt and alpha-TS tris salt.

L1210 leukemia cells [3] = details: 100 mg/kg ip
rat hepatocytes [4] = assay: EMS-induced cytotoxicity (LDH leakage/cell death) in rat hepatocyte suspensions; details: for inhibition at 25 µM: Rattus norvegicus, Hepatocyte
Experimental: To determine if alpha-TS is a cytoprotective agent under physiological conditions, liver cells were incubated with Waymouth's medium containing approximately 1 mM extracellular Ca^2+ in the presence and absence of alpha-TS.
(§1) At each time-point, rapid separation of viable from non-viable hepatocytes and medium was accomplished by the dibutyl phthalate centrifugation method. Cell viability was monitored hourly by measuring LDH leakage with a Cobas Analyzer and intracellular [K^+ ]with a flame photometer. LDH was routinely measured in the medium while intracellular K^+ was measured in the 10% perchloric acid lysate of viable cells. Lipid peroxidation was determined by measuring TBA reactants in the medium. […] The samples were diluted with 0.3 ml 1% ascorbate in 0.1 M SDS, 0.4 ml ethanol, sonicated and extracted once with 0.8 ml hexane. Next, the hexane extract was evaporated to dryness with N2, the residue dissolved in 2.5% ascorbate in methanol (1 ml) and analyzed (100 μl) by high-performance liquid chromatograph (HPLC). […] The mobile phase, 95% MeOH was run isocratically and the HPLC retention times for delta and alpha-tocopherol were approximately eleven and sixteen minutes, respectively. […] Following the addition of 0.2 ml 4 M HC1, the neutralized KOH-MeOH extracted with 0.8 ml hexane. […] A standard curve for each tocopherol congener was run with every assay. […] Only viable cells were monitored in the laboratory procedures.
To determine the relative cytoprotective potency of various tocopherol derivatives, the effect of varying doses of a tocopherol analog on the protection against EMS-induced toxicity was examined in vitro on rat hepatocyte suspensions. Specifically, the following ionizable tocopherol congeners were tested: alpha-TS, alpha tocopheryl glutarate (alpha-TG), and alpha tocopheryl phosphate (alpha-TP). […] 0.1 nmoles is the lower detection limit.
In vitro experiments were conducted with a variety of different tocopherol and succinate analogs to determine which were protective against EMS induced toxicity. After five hours of incubation with 50 mM EMS and 25μM of a tocopherol or succinate analog, cytoprotection was determined by comparing the percentage of LDH leakage from control hepatocytes (vehicle only, assumed 100% protection) with the EMS only treated cells (assumed 0% protection).
An in vitro experiment with rat hepatocyte suspensions was performed to determine the effect of esterase inhibitors on alpha-TS.
(§2) Rat hepatocyte suspensions were subjected to 50 mM EMS and the percentage of cell death, the percentage of intracellular K^+ (a metabolic parameter as discussed above), the depletion of ATP and the effect on lipid peroxidation were monitored.

rat hepatocytes [5] = assay: EMS-induced lipid peroxidation in rat hepatocyte suspensions; assay type: cell-based; details: Rattus norvegicus, Hepatocyte; 25 μM, 50 mM EMS
Experimental: as §1, §2

rat hepatocytes [6] = assay: Cellular alpha-tocopherol and tocopherol ester content of rat hepatocytes; details: 25 μM, Table 2
Experimental: as §1
The hepatocytes were subsequently exposed to 50mM EMS for three hours.

male Sprague-Dawley rats = assay: CCl4 induced lethality in rats; assay type: in vivo, rat
Experimental: The in vivo effect of alpha-TS was tested by administering a lethal oral dose of carbon tetrachloride (CC14) to male Sprague-Dawley rats.
In the experiment described in Table 3, a single dose of alpha-TS dissolved in peanut oil:ethanol (3:2) was given to male Sprague-Dawley rats. The dose was given 24 hours prior to an orally administered CCl4 challenge dissolved in peanut oil. Two to nine animals were tested per treatment. The control group comprised rats pretreated with the vehicle only. Survival was monitored for at least 7 days after the toxic insult.
In vivo experiments were performed to determine if the time the ionizable tocopherol analog (alpha-TS) is administered affects the cytoprotective functions. Male Sprague-Dawley rats were given a 100 mg/kg intraperitoneal dose of a tocopherol or succinate analog and were given a lethal dose of CCl4 (2.9g/kg by oral gavage). Table 7 contrasts the times of administration of the tocopherol or succinate analog and the times of administration of the lethal dose of CCl4 with the survival of the rats in the study (3to 6 rats per protective treatment).
Several tocopherol and succinate analogs were tested for CCl4 induced lethality. A single dose of the tocopherol or succinate analog was administered twenty four hours prior to orally administering 2.9 g CCl4 /kg body weight. Three to six animals were analyzed per treatment. The rats were monitored for seven days. […]

[7] = Tissue distribution of alpha-tocopherol and alpha-tocopherol ester in rats; assay type: in vivo, rat; details: 100 mg/kg ip, 24 h
Experimental: 100 mg/kg body weight of a tocopherol analog was administered to Sprague-Dawley rats using a peanut oil:ethanol vehicle (3:2). Twenty four hours later the rats were sacrificed and the accumulation of the tocopherol analog in the liver was determined.
A similar in vivo experiment to that discussed in conjunction with Table 5 was performed to determine if other tissues accumulate alpha-TS. Male Sprague-Dawley rats were given a 100 mg/kg dose of alpha-TS using a variety of chemical forms and vehicles. A variety of techniques were used to administer the alpha-TS. Twenty four hours later the rats were sacrificed and the tissues were tested for alpha-TS accumulation.

variety of cell types = details: cited from earlier work
L1210 leukemia cells [8] = assay: Doxorubicin in L1210 leukemia bearing CDF1 mice; assay type: in vivo, mouse; details: DOX 10 mg/kg
Experimental: The experiments were conducted in accordance with NCI Protocol 1,100. FIGS. 8a-d show the experimental results obtained when male CDF1 mice (n=6) received either vehicle only or 100mg/kg body weight i.p. dose of either alpha-TS or cholesteryl succinate 20 hours prior to DOX administration. FIGS. 8a-d respectively show the results obtained when the mice received 10, 15, 20, and 25 mg DOX/kg body weight. […] FIGS. 9a-d show the experimental results obtained when male CDF1 mice ([…]) were injected (i.p.) with 10^6 murine L1210 leukemia cells followed immediately by an injection of alpha-TS tris salt (100 mg/kg, i.p.) or saline injection (vehicle), and twenty hours later (Day=0) each mouse in three of the groups was i.p. injected with 15, 20, or 25 mg DOX/kg body weight ([…]). Survival was monitored for twenty days.

[9] = system: gluconeogenesis or ATP production; details: cited from earlier work
liver [10] = assay: Acetaminophen-induced hepatotoxicity in rats (AST/ALT); assay type: in vivo, rat
Experimental: In vivo experiments were performed to determine if alpha-TS administration protects the liver from the hepatotoxic effects of acetaminophen. Acetaminophen is a commonly used analgesic that is metabolized to a reactive intermediate. […] The other group of male Sprague-Dawley rats received only the acetaminophen challenge. Forty eight hours after the challenge the rats were sacrificed and the levels of aspartate aminotransferase (AST) and alanine aminotransferase (ALT) were measured.
FIGS. 10 and 11 show the results of in vivo experiments where male Sprague-Dawley rats were given an oral dose of 15 or 30 mg THA/kg body weight, respectively. In the experiments, one group of rats was provided with an i.p. dose of 100 mg cholesteryl succinate tris salt/kg body weight 20 hours prior to the THA challenge, another group of rats only received the THA challenge, and the last group of rats acted as a control and were not challenged. The serum AST levels were determined with respect to time after the THA challenge.

rat hepatocytes [11] = assay: Intracellular K+ of rat hepatocytes exposed to EMS; assay type: cell-based; details: 50 mM EMS, 5 Hrs; concentrations as cell death (Table 15)
From the text: Medzhradsky, Biochem. Med. 13:164 (1975), has noted that the cell's ability to maintain its intracellular concentration of potassium (K^+) is an excellent indicator of the metabolic integrity of the cell. A concentration gradient exists for K^+ with greater concentrations found intracellularly. To maintain this gradient, the cell is dependent on the action of the Na^+ -K^+ ATPase pump and an adequate supply of ATP. As cellular ATP levels decline, the ATPase pump is unable to maintain the gradient resulting in the loss of intracellular K^+ by equilibration with the extracellular space. Because the maintenance of cellular metabolic processes is essential to the continual repair and survival of cells, organ systems, and organisms, the effect of alpha-TS on the metabolic integrity of rat liver cells during a toxic insult was investigated by measuring intracellular K^+ levels. […] At each time-point, rapid separation of viable from non-viable hepatocytes and medium was accomplished by the dibutyl phthalate centrifugation method. Cell viability was monitored hourly by measuring LDH leakage with a Cobas Analyzer and intracellular [K^+ ]with a flame photometer. […] Lipid peroxidation was determined by measuring TBA reactants in the medium. […] Alltech, Avondale, Pa.). […] Following the addition of 0.2 ml 4 M HC1, the neutralized KOH-MeOH extracted with 0.8 ml hexane. […] A standard curve for each tocopherol congener was run with every assay. […] Only viable cells were monitored in the laboratory procedures.

[12] = 100 mg/kg ip 20 h prior, 48 h after 1 g/kg CCl4 (Table 20)
[13] = 100 mg/kg ip 20 h prior, 48 h after 1 g/kg CCl4 (Table 27)
[14] = rat plasma, 100 mg/kg ip 24 h prior, 48 h after […] CCl4
[15] = 100 mg/kg ip, 48 h after 1 g/kg CCl4 (Table 33)
[16] = 100 mg/kg ip, no CCl4 (Table 20)
[17] = 100 mg/kg ip, no CCl4 (Table 33)
[18] = 100 mg/kg ip 20 hrs prior, 48 h after 2 g/kg AP (Table 23)

SMILES: Cc1c(C)c2c(c(C)c1OC(=O)CCC(=O)O)CC[C@@](C)(CCC[C@H](C)CCC[C@H](C)CCCC(C)C)O2 [alpha-TS tris salt, Alpha tocopheryl succinate tris salt]
- ALT (liver [1]; [12]): 0.371 ± 0.246 10^3 units/L
- AST (liver [1]; [12]): 1.86 ± 1.11 10^3 units/L
- ALT (liver [1]; [13]): 0.52 ± 0.16 10^3 units/L
- AST (liver [1]; [13]): 0.79 ± 0.26 10^3 units/L
- inhibition in vivo at 100 mg/kg (liver [1]; Rattus norvegicus, 100 mg/kg ip 20 h prior, 48 h after 1 g/kg CCl4, read-out: % Hepatoprotection): 80%
- growth rate of L1210 cells (FIG. 7) [2]: significantly suppress the growth rate of L1210 cells
- Survival Time (L1210 leukemia cells [3]): 7.6 ± 0.6 days

SMILES: CC(=O)Oc1c(C)c(C)c2c(c1C)CC[C@@](C)(CCC[C@H](C)CCC[C@H](C)CCCC(C)C)O2 [alpha-TA, d-alpha-tocopherol acetate, reference compound]
- inhibition at 25 µM (rat hepatocytes [4]; read-out: % Protection, 25 μM, 50 mM EMS): 12%
- inhibition at 25 µM (rat hepatocytes [5]): 14%
- Cellular Tocopherol ester (rat hepatocytes [6]): 1.7 nmoles/10^6 cells
- Cellular alpha-T (rat hepatocytes [6]): 0.3 nmoles/10^6 cells
- Protection from CCl4 (male Sprague-Dawley rats; 100 mg/kg ip (Table 5)): No
- Days Survived After CCl4 Treatment (male Sprague-Dawley rats; 100 mg/kg ip, 24 h prior, CCl4 2.2 g/kg): > 7 days
- Days Survived After CCl4 Treatment (male Sprague-Dawley rats; 100 mg/kg ip, 24 h prior, CCl4 3.8 g/kg): 2 days
- Days Survived After CCl4 Treatment (male Sprague-Dawley rats; 100 mg/kg ip, 24 h prior, CCl4 5.0 g/kg): 2 days
- Days Survived After CCl4 Treatment (male Sprague-Dawley rats; 100 mg/kg ip, 24 h prior, CCl4 […]): 3 days
- ALT (liver [1]; [14]): 6,108 ± 417 Units/L
- AST (liver [1]; [14]): 20,233 ± 3525 Units/L
- Liver Concentration Ester [7]: 92 ± 6 nmol/g
- protection against carcinogenic effects of radiation and cancer causing chemicals (variety of cell types): ineffective

SMILES: COc1cccc2c1C(=O)c1c(O)c3c(c(O)c1C2=O)C[C@@](O)(C(=O)CO)C[C@@H]3O[C@H]1C[C@H](N)[C@H](O)[C@H](C)O1 [DOX, doxorubicin, reference compound]
- survival of tumor bearing mice given DOX (L1210 leukemia cells [8]): dramatically increased

SMILES: COC(=O)CCC(=O)O [methyl ester succinate, methyl ester of succinate]
- concentration required to stimulate gluconeogenesis or ATP production [9]: Millimolar concentrations

SMILES: O=C(O)CCC(=O)O [Tris Succinate, reference compound]
- ALT (liver [1]; [12]): 3.617 ± 0.858 10^3 units/L
- AST (liver [1]; [12]): 11.22 ± 3.15 10^3 units/L
- ALT (liver [1]; [15]): 2.135 ± .881 10^3 units/L
- AST (liver [1]; [15]): 8.32 ± 2.65 10^3 units/L
- ALT (liver [1]; [16]): 0.048 ± 0.005 10^3 units/L
- AST (liver [1]; [16]): 0.11 ± 0.02 10^3 units/L
- ALT (liver [1]; [17]): 0.058 ± .001 10^3 units/L
- AST (liver [1]; [17]): 0.15 ± 5.02 10^3 units/L
- Serum ALT Level (liver [10]; [18]): 623 ± 339 Units/L
- Serum AST Level (liver [10]; [18]): 2286 ± 1190 Units/L
- Serum ALT Level (liver [10]; 100 mg/kg ip, no AP (Table 23)): 50 ± 7 Units/L
- Serum AST Level (liver [10]; 100 mg/kg ip, no AP (Table 23)): 93 ± 34 Units/L
- growth rate of L1210 cells (FIG. 7) [2]: no effect on the growth rate

SMILES: COC(=O)CCC(=O)Oc1c(C)c(C)c2c(c1C)CCC(C)(CCCC(C)CCCC(C)CCCC(C)C)O2 (stereo not drawn) [methyl ester of alpha-TS, Alpha-Tocopherol Succinate Methyl Ester]
- Cell Death (rat hepatocytes [4]; 50 mM EMS, 5 Hrs, alpha-TS 25, methyl ester 50, cholesteryl succinate 100, monomethyl/dimethyl succinate 250 μM): 30 ± 1%
- inhibition at 25 µM (rat hepatocytes [4]; 5 h, read-out: Percent Cytoprotection, 25 μM, 50 mM EMS, 5 h): 22 ± 15%
- % Initial Intracellular [K+] (rat hepatocytes [11]): 67 ± 4 % Initial
- Days Survived After CCl4 Treatment (male Sprague-Dawley rats; 100 mg/kg, single dose 24 h prior, CCl4 […]): > 7 days
